In patent US4912119A, “Imidazolylguanidine derivatives and compositions containing these compounds” (Heumann Pharma GmBH & Co., priority 1986, dated 1990):
Where a name gives a salt, the structure may show the parent alone.

Legend:
histamine H1 receptor = target: T1, histamine H1 receptor (Cavia porcellus, UniProt P31389); test: H1-antagonistic activity in vitro, isolated guinea-pig ileum (method of Arunlakshana and Schild); assay type: biochemical; conditions: for Kb: read-out: pA2 -value (Ileum) (converted)
T1 construct: determined on isolated atrium and ileum of guinea-pig; from tissue; host or cells: isolated guinea-pig ileum
T1 sequence (P31389 whole entry): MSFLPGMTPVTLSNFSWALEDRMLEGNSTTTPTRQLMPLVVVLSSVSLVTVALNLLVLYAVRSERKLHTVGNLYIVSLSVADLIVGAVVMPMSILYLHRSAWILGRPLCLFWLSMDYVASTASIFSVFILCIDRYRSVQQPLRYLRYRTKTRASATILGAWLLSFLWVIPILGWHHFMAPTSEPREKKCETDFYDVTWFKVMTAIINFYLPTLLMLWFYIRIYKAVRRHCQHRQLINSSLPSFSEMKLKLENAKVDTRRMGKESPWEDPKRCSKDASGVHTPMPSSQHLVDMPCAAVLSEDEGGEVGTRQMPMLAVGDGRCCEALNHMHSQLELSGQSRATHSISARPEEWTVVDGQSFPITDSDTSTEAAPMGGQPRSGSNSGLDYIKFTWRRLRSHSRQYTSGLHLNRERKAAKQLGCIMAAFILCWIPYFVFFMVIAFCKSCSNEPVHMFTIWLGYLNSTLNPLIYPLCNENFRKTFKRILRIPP
Source text: (§1) The compounds according to this invention are distinguished by a novel, hitherto unknown and undescribed pharmacological overall activity. The new class of structure according to this invention has both a H1 -antagonistic active component and an H2 -agonistic component. These manifest the pharmacological results shown below. One recognized method of determining the H1 -antagonistic activity is the determination of the pA2 -values in vitro (O. Arunlakshana and H. O. Schild, (1959), "Some Quantitative Uses of Drug Antagonists", Br. J. Pharmac. Chemother, 14, 48-58). To determine the H2 -agonistic activity (pD2 -values), the method of J. M. van Rossum, (1963) is employed, described in "Cumulative Dose-Response Curves II. Technique for the Making of Dose-Response Curves in Isolated Organs and the Evaluation of Drug Parameters", Arch. Intern. Pharmacodyn. Therap. 143, 299-307. |(determined on isolated atrium and ileum of guinea-pig)

histamine-H2 receptors = target: T2, histamine-H2 receptors (Cavia porcellus, UniProt P47747); test: H2-agonistic activity, isolated guinea-pig atrium (method of van Rossum, cumulative dose-response curves); assay type: biochemical; conditions: read-out: pD2 -value (Atrium) (converted)
T2 construct: determined on isolated atrium and ileum of guinea-pig; from tissue; host or cells: isolated guinea-pig atrium
T2 sequence (P47747 whole entry): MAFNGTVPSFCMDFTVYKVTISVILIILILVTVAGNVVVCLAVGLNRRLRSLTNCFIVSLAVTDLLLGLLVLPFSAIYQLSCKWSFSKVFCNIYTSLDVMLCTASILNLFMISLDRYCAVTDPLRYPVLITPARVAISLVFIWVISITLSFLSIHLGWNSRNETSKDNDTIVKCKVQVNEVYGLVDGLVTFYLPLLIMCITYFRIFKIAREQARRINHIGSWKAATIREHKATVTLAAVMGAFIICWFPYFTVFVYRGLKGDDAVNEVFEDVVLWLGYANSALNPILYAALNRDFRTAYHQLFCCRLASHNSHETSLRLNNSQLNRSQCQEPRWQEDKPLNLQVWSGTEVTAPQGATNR
Source text: as §1

Structure (SMILES)	pA2 -value (Ileum) (histamine H1 receptor)	EC50 (histamine-H2 receptors) [nM]	Kb (histamine H1 receptor) [nM]
NC(=NCCCc1c[nH]cn1)NCCC(c1ccc(F)cc1)c1cccnc1 (centres unmarked) [Example 24, N^1-[3-(4-Fluorophenyl)-3-(pyridin-3-yl)propyl]-N^2-[3-(1H-imidazol-4-yl)-propyl]-guanidine]	6.71	8.13	
N=C(NCCCc1c[nH]cn1)NCCN(Cc1cccs1)c1ccccn1 [Example 4, N^1-[3-(1H-Imidazol-4-yl)propyl]-N^2 [2-[N-(pyridin-2-yl)-N-(thiophen-2-yl-methyl)amino]ethyl]-guanidine hydriodide]		437	9.12
NC(=NCCCc1c[nH]cn1)NCCC(c1ccc(F)c(F)c1)c1ccccn1 (centres unmarked) [Example 17, N^1-[3-(3,4-Difluorophenyl)-3-(pyridin-2-yl)propyl]-N^2-[3-(1H-imidazol-4-yl)propyl]-guanidine]	7.07	7.59	
N=C(NCCCCc1ccccn1)NCCCc1c[nH]cn1 [Example 2, N^1-[3-(1H-Imidazol-4-yl)propyl]-N^2-[4-(pyridin-2-yl)butyl]-guanidine hydriodide]		112	309
N=C(NCCCc1c[nH]cn1)NCCCN(Cc1ccc(Cl)cc1)c1ccccn1 [Example 3, N^1-[3-(1H-Imidazol-4-yl)propyl]-N^2-[3-[N-(4-chlorobenzyl)-N-(pyridin-2-yl)amino]propyl]-guanidine hydriodide]		2140	2.51
CC(CCNC(=N)NCCCc1c[nH]cn1)(c1ccccc1)c1ccccc1 [Example 8, N^1-[3-(1H-Imidazol-4-yl)propyl]-N^2-(3,3-diphenylbutyl)-guanidine hydrochloride]		123	37.2

The next lines start with the values.

pA2 -value (Ileum) (histamine H1 receptor)	EC50 (histamine-H2 receptors) [nM]	Kb (histamine H1 receptor) [nM]	Structure (SMILES)
	13.8	112	N=C(NCCCc1c[nH]cn1)NCCC(c1ccccn1)c1ccc(Cl)cc1Cl (centres unmarked) [Example 16, N^1-[3-(2,4-Dichlorophenyl)-3-(pyridin-2-yl)propyl]-N^2-[3-(1H-imidazol-4-yl)-propyl]-guanidine]
	6.31	115	N=C(NCCCc1c[nH]cn1)NCCC(c1ccc(Cl)c(Cl)c1)c1ccccn1 (centres unmarked) [Example 14, N^1-[3-(3,4-Dichlorophenyl)-3-(pyridin-2-yl)propyl]-N^2-[3-(1H-imidazol-4-yl)propyl]-guanidine]
7.05	11.5		NC(=NCCCc1c[nH]cn1)NCCC(c1cccc(Cl)c1)c1ccccn1 (centres unmarked) [Example 20, N^1-[3-(3-Chlorophenyl)-3-(pyridin-2-yl)propyl]-N^2-[3-(1H-imidazol-4-yl)propyl]-guanidine]
	8.91	282	N=C(NCCCc1c[nH]cn1)NCCC(c1cc(F)cc(F)c1)c1ccccn1 (centres unmarked) [Example 18, N^1-[3-(3,5-Difluorophenyl)-3-(pyridin-2-yl)propyl]-N^2-[3-(1H-imidazol-4-yl)propyl]-guanidine]
